Experimental data published in ChEMBL document CHEMBL1201862, “PubChem BioAssay data set” (2004).
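Five concentrations, 48 hours, 96-well plates. GI50: concentration for 50% inhibition of growth.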 Activity calls are given as the source filed them. Rule as the data show it: active = GI50 up to about 1.1 µM and inactive = higher.

Key:
Test in all cases: NCI anticancer screen, dose series, 48 h
[1] = test system: HCT-15
[2] = test system: OVCAR-4
[3] = test system: SF-268
[4] = test system: SF-295
[5] = test system: PC-3
[6] = test system: NCI-H460
[7] = test system: 786-0
[8] = test system: EKVX
[9] = test system: COLO 205
[10] = test system: NCI/ADR-RES
[11] = test system: HCC 2998
[12] = test system: NCI-H23
[13] = test system: SK-MEL-2
[14] = test system: KM12
[15] = test system: SK-MEL-5
[16] = test system: IGROV-1
[17] = test system: T47D
[18] = test system: Malme-3M
[19] = test system: A549
[20] = test system: HT-29
[21] = test system: UACC-62
[22] = test system: HOP-62
[23] = test system: DU-145
[24] = test system: OVCAR-8
[25] = test system: UO-31
[26] = test system: SF-539
[27] = test system: HCT-116
[28] = test system: LOX IMVI
[29] = test system: NCI-H226
[30] = test system: OVCAR-5
[31] = test system: MOLT-4
[32] = test system: SK-MEL-28
[33] = test system: CCRF-CEM
[34] = test system: SR
[35] = test system: MDA-MB-231
[36] = test system: SNB-19
[37] = test system: TK-10
[38] = test system: HOP-92
[39] = test system: M14
[40] = test system: RPMI-8226
[41] = test system: SK-OV-3
[42] = test system: BT-549
[43] = test system: K562
[44] = test system: MDA-N
[45] = test system: OVCAR-3
[46] = test system: A498
[47] = test system: MCF7
[48] = test system: MDA-MB-435
[49] = test system: Hs-578T
[50] = test system: HL-60
[51] = test system: ACHN
[52] = test system: SN12C
[53] = test system: U-251
[54] = test system: UACC-257
[55] = test system: CAKI-1
[56] = test system: SW-620
[57] = test system: RXF 393
[58] = test system: SNB-75
[59] = test system: NCI-H522

In the case of `COc1ccc(C(=O)/C=C2\Nc3cccnc3N\C2=C/C(=O)c2ccc(OC)cc2)cc1`, the GI50 [1] is reported as 32.1 µM, the GI50 [2] is reported as 2.67 µM (inactive) and the GI50 [3] is reported as 7.8 µM (inactive). The GI50 [4] was 16.9 µM (inactive), the GI50 [5] was > 100 µM (inactive) and the GI50 [6] was 9.18 µM (inactive). The GI50 [7] was 2.17 µM (inactive), the GI50 [8] was 20.8 µM (inactive) and the GI50 [9] was 60.5 µM (inactive). For the same compound, the GI50 [10] was 17.4 µM (inactive), the GI50 [11] was 23.9 µM (inactive) and the GI50 [12] was 13.5 µM (inactive). For the same compound, the GI50 [13] was 23.7 µM (inactive), the GI50 [14] was 23.4 µM (inactive) and the GI50 [15] was 25.1 µM (inactive). The GI50 [16] was 5.11 µM (inactive), the GI50 [17] was 11.5 µM (inactive) and the GI50 [18] was 11.7 µM (inactive). The GI50 [19] was 15.6 µM (inactive), the GI50 [20] was 14.5 µM (inactive) and the GI50 [21] was 17.3 µM (inactive). For the same compound, the GI50 [22] was 4.94 µM (inactive), the GI50 [23] was 19.9 µM (inactive) and the GI50 [24] was 14.3 µM (inactive). The GI50 [25] was 27.4 µM (inactive), the GI50 [26] was 12.5 µM (inactive) and the GI50 [27] was 15.2 µM (inactive). For the same compound, the GI50 [28] was 13.9 µM (inactive), the GI50 [29] was 4.8 µM (inactive) and the GI50 [30] was 42.3 µM (inactive). For the same compound, the GI50 [31] was 27.9 µM (inactive), the GI50 [32] was 16.9 µM (inactive) and the GI50 [33] was > 100 µM (inactive). For the same compound, the GI50 [34] was 16.1 µM (inactive), the GI50 [35] was 13.5 µM (inactive) and the GI50 [36] was 18.7 µM (inactive). The GI50 [37] was 13.2 µM (inactive), the GI50 [38] was 53.1 µM (inactive) and the GI50 [39] was 20.9 µM (inactive). The GI50 [40] was 42.2 µM (inactive), the GI50 [41] was 13 µM (inactive) and the GI50 [42] was 18.8 µM (inactive). For the same compound, the GI50 [43] was 57.9 µM (inactive), the GI50 [44] was 64.7 µM (inactive) and the GI50 [45] was 14.8 µM (inactive). The GI50 [46] was > 100 µM (inactive), the GI50 [47] was 14.8 µM (inactive) and the GI50 [48] was 20.3 µM (inactive). For the same compound, the GI50 [49] was 15.2 µM (inactive), the GI50 [50] was > 100 µM (inactive) and the GI50 [51] was 17.7 µM (inactive). For the same compound, the GI50 [52] was 12.2 µM (inactive), the GI50 [53] was 14.6 µM (inactive) and the GI50 [54] was 26.7 µM (inactive). The GI50 [55] was 17.2 µM (inactive).
For `C=C1C(OC)=C(OC)C(=O)c2[nH]c3c(OC)cc([N+](=O)[O-])cc3c21`, the GI50 [1] was > 100 µM, the GI50 [2] was > 100 µM (inactive) and the GI50 [3] was > 100 µM (inactive). The GI50 [4] was > 100 µM (inactive), the GI50 [5] was > 100 µM (inactive) and the GI50 [56] was > 100 µM (inactive). For the same compound, the GI50 [6] was > 100 µM (inactive), the GI50 [7] was 37.8 µM (inactive) and the GI50 [8] was 62.4 µM (inactive). The GI50 [9] was > 100 µM (inactive), the GI50 [10] was > 100 µM (inactive) and the GI50 [11] was > 100 µM (inactive). For the same compound, the GI50 [12] was > 100 µM (inactive), the GI50 [13] was > 100 µM (inactive) and the GI50 [14] was > 100 µM (inactive). The GI50 [15] was > 100 µM (inactive), the GI50 [16] was > 100 µM (inactive) and the GI50 [17] was > 100 µM (inactive). For the same compound, the GI50 [18] was > 100 µM (inactive), the GI50 [19] was > 100 µM (inactive) and the GI50 [20] was > 100 µM (inactive). For the same compound, the GI50 [21] was > 100 µM (inactive), the GI50 [22] was 85.7 µM (inactive) and the GI50 [23] was > 100 µM (inactive). For the same compound, the GI50 [24] was > 100 µM (inactive), the GI50 [25] was > 100 µM (inactive) and the GI50 [26] was > 100 µM (inactive). The GI50 [27] was > 100 µM (inactive), the GI50 [28] was > 100 µM (inactive) and the GI50 [29] was > 100 µM (inactive). The GI50 [30] was > 100 µM (inactive), the GI50 [31] was > 100 µM (inactive) and the GI50 [32] was > 100 µM (inactive). For the same compound, the GI50 [33] was > 100 µM (inactive), the GI50 [35] was > 100 µM (inactive) and the GI50 [36] was > 100 µM (inactive). For the same compound, the GI50 [57] was 37 µM (inactive), the GI50 [37] was > 100 µM (inactive) and the GI50 [38] was > 100 µM (inactive). The GI50 [39] was > 100 µM (inactive), the GI50 [40] was > 100 µM (inactive) and the GI50 [41] was > 100 µM (inactive). For the same compound, the GI50 [42] was > 100 µM (inactive), the GI50 [43] was > 100 µM (inactive) and the GI50 [44] was > 100 µM (inactive). The GI50 [45] was > 100 µM (inactive), the GI50 [58] was 39.1 µM (inactive) and the GI50 [46] was > 100 µM (inactive). For the same compound, the GI50 [59] was > 100 µM (inactive), the GI50 [47] was > 100 µM (inactive) and the GI50 [48] was > 100 µM (inactive). The GI50 [49] was > 100 µM (inactive), the GI50 [50] was > 100 µM (inactive) and the GI50 [51] was > 100 µM (inactive). For the same compound, the GI50 [52] was > 100 µM (inactive), the GI50 [53] was > 100 µM (inactive) and the GI50 [54] was > 100 µM (inactive). The GI50 [55] was > 100 µM (inactive).
